Source: US6737400B2, “Method and composition for treating irritable bowel syndrome using low doses of opioid receptor antagonists” (Albert Einstein College of Medicine of Yeshiva University, priority 1999, dated 2004)

Legend:
[1] = system: constipation-predominant IBS patients; conditions: eight patients, 16 mg three times a week, eight weeks; cited from earlier work
[2] = system: opioid analgesia in postsurgical patients; conditions: cited from earlier work; for Effect on analgesic potency of morphine: low-dose cotreatment with morphine, postsurgical patients, 24-hour test periods
patients with IBS = test: Open clinical study of low dose naltrexone in patients with IBS (daily symptom diary, global self-assessment); assay type: in vivo, human
Experimental: An open study of low dose naltrexone administration in four (4) patients with IBS was initiated. The patients were evaluated for IBS, based on the Rome criteria. All patients were screened for other disorders or medications that could cause gastrointestinal symptoms of IBS. These included inflammatory bowel disease, cancer, lactose intolerance, and neurological disorders, as well as the use of narcotic medications. […] Each subject was fully informed of the benefits and possible side effects of the study and thereafter freely gave their consent to participate in the study.
Each patient maintained a daily diary of the symptoms prior to and during treatment with 1-3 mg/day of naltrexone. Each participant noted the following symptoms:
Patients were permitted to remain on medications other than anticholinergics and anti-diarrheal agents (i.e., fiber bulking agents or lactose enzyme replacement if needed).
Naltrexone (tradename Revia; 50 mg tablets; DuPont Merck) was purchased at a pharmacy. Single tablets were crushed and dissolved in 50 ml boiled distilled water, and stored unfrozen in a refrigerator. Each patient received 2 ml (2 mg) orally each morning with breakfast. Medication was prepared weekly and used for seven doses, with the remainder being discarded.

IBS patients = conditions: 30 mg, three times daily; cited from earlier work
[3] = Patient A, after 24 months, 2.5-3.0 mg/day
[4] = Patient B, after 12 months, 1.5-2.3 mg/day
[5] = Patient D, after 9 months, 2.5-3.0 mg/day

C=C1CCC2(O)C3Cc4ccc(OC5OC(C(=O)O)C(O)C(O)C5O)c5c4C2(CCN3CC2CC2)C1O5 (stereo not shown) [nalmefene glucuronide, Nalmefene glucuronide]
Abdominal pain or bloating [1]: did not reduce abdominal pain or bloating
Stool consistency [1]: not improved
Stool frequency [1]: increased stool frequency
Transit time [1]: decreased transit time

C=C1CC[C@@]2(O)[C@H]3Cc4ccc(O)c5c4[C@@]2(CCN3CC2CC2)[C@H]1O5 [nalmefene]
Effect on morphine's analgesic potency ([2]; ca. 15 μg, IV): markedly enhance morphine's analgesic potency
Effect on opioid analgesia ([2]; doses of >0.5 mg): markedly attenuate opioid analgesia
Effect on analgesic potency of morphine [2]: markedly enhanced the analgesic potency of morphine

C=CCN1CC[C@]23c4c5ccc(O)c4O[C@H]2C(=O)CC[C@@]3(O)[C@H]1C5 [naloxone]
Effect on analgesic potency of morphine [2]: markedly enhanced the analgesic potency of morphine

O=C1CC[C@@]2(O)[C@H]3Cc4ccc(O)c5c4[C@@]2(CCN3CC2CC2)[C@H]1O5 [naltrexone]
Abdominal cramping (patients with IBS; [3]): completely ceased
Frequency of bowel actions (patients with IBS; [3]): returned to normal levels
Cramping abdominal pain (patients with IBS; Patient A, after nine months of treatment): no cramping abdominal pain
Stool frequency (patients with IBS; Patient A, after nine months of treatment, oral daily, before treatment about 4-8 times per day): 1-2 formed bowel movements per day
Global improvement on the 0-4 scale (patients with IBS; Patient A, 0 = no observable change, 4 = marked and substantially improved): 4
Global improvement on the 0-4 scale (patients with IBS; Patient B): 3
Frequency of bowel actions (patients with IBS; [4]): no change
Reduction in abdominal cramping (patients with IBS; [4]): 50%
Abdominal pain associated with cramping (patients with IBS; Patient B, after 75 days of treatment): total elimination of abdominal pain associated with cramping
Stool frequency (patients with IBS; Patient B, after 75 days of treatment, before treatment 10-12 diarrheal movements per day): 2-4 bowel movements per day
Global improvement on the 0-4 scale (patients with IBS; Patient C): 2.5
IBS symptoms (patients with IBS; Patient C, 24 month follow-up, diagnosed with fibromyalgia, 1-2 mg/day, stopped after 6 months): did not respond
Abdominal pain associated with cramping (patients with IBS; Patient C, after 75 days of 2 mg/day): eliminated
Frequency of loose bowel movements (patients with IBS; Patient C, after 75 days of 2 mg/day, before treatment 2-3 loose bowel movements daily): halved in frequency
Global improvement on the 0-4 scale (patients with IBS; Patient D): 2.5
Decrease in cramping (patients with IBS; [5]): 75%
Reduction in frequency of bowel actions (patients with IBS; [5]): 20%
IBS symptoms after treatment was halted (patients with IBS; Patient D, low-dose treatment halted after 9 months): IBS symptoms returned
Abdominal cramping symptoms (patients with IBS; Patient D, upon initiation of low dose treatment, continued over 70 days): immediate relief of abdominal cramping symptoms
Reduction in stool frequency (patients with IBS; Patient D, upon initiation, continued over 70 day treatment period, before treatment 7-10 unformed diarrheal movements per day): 50%
IBS symptoms on every other day dosing schedule (patients with IBS; Patients A and C, dosing changed to every other day): IBS symptoms returned
Side effects (patients with IBS; four patients, 2 mg orally each morning): None of the four patients reported discernible side effects

fedotizine
Treatment of IBS (IBS patients): successful treatment
